Reference: article PMC7567791 (Scientific Reports, 2020)

Target: T1, μ-OR (Homo sapiens, UniProt P35372)
T1 construct: expressed in transfected cells; host or cells: HEK293A parental, ΔGRK2, ΔGRK3, ΔGRK2/3 (and Δβ-arrestin1/2) cells
Assay type: cell-based

T1 sequence (P35372 whole entry): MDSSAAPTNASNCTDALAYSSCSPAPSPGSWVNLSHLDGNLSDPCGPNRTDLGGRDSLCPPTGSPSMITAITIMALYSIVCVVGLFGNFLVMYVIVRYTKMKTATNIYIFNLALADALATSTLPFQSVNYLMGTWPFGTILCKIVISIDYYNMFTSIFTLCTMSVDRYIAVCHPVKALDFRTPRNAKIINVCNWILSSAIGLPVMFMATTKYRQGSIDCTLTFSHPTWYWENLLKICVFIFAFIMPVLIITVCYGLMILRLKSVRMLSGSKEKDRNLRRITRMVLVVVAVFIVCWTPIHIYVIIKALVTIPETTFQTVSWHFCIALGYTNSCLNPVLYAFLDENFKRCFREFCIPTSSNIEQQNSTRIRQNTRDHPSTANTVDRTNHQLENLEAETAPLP

C[C@@H](NC(=O)[C@@H](N)Cc1ccc(O)cc1)C(=O)NCC(=O)N(C)[C@@H](Cc1ccccc1)C(=O)NCCO [DAMGO, D-Ala(2)-mephe(4)-gly-ol(5))enkephalin]
time of peak in β-arrestin2 recruitment to μ-OR-EYFP: 6 min
